Assays:
[1] = NOVARTIS: Cytotoxicity against human hepatocellular carcinoma cell line (Huh7); type: toxicity, cell-based, Huh-7; conditions: Huh7 cells (hepatocellular carcinoma cell line)
Plasmodium falciparum [2] = test: NOVARTIS: Inhibition of Plasmodium falciparum 3D7 (drug-susceptible) proliferation in erythrocyte-based infection assay; type: functional, organism-based; conditions: Plasmodium falciparum, 3D7
Plasmodium falciparum [3] = test: NOVARTIS: Inhibition of Plasmodium falciparum W2 (drug-resistant) proliferation in erythrocyte-based infection assay; type: functional, organism-based; conditions: Plasmodium falciparum, W2; read-out: EC50

| SMILES | CC50 [1] [nM] | EC50 (Plasmodium falciparum [2]) [nM] | EC50 (Plasmodium falciparum [3]) [nM] |
| --- | --- | --- | --- |
| CCN(CC)CCNc1ccnc2cc(Cl)ccc12 | 29800 | 7.16 | 6.01 |
| CCOC(=O)c1cn(CC)c2cc(N(C)CCc3ccc(OC)c(OC)c3)c(F)cc2c1=O | > 100000 | 103 | 26.7 |
| CCc1ccccc1N=C1c2c(cccc2[N+](=O)[O-])C(=O)C1C(C)=O (stereo not drawn) | > 100000 | 11.3 | 15.4 |
| COc1cc(NC(C)CCCN(Cc2ccc(F)cc2)C(=O)C(c2ccccc2)c2ccccc2)c2ncccc2c1 (stereo not drawn) | > 3470 | > 1090 | < 0.572 |
| CCc1ccc(C(=O)N(CCc2ccccc2)C(CC)c2nc3ccccc3c(=O)n2-c2ccccc2OC)cc1 (stereo not drawn) | > 9700 | 389 | 1.5 |
| O=C(Cc1c(F)cccc1Cl)Nc1cc(C(=O)N2CCN(Cc3ccccc3)CC2)ccc1N1CC2CC(C1)c1cccc(=O)n1C2 (stereo not drawn) | > 100000 | 67.2 | 30 |
| CCOC(=O)c1c(NC(=O)c2ccccc2)sc2c(O)c(CN(CC)CC)ccc12 | > 46800 | 267 | 8.44 |
| CCOC(=O)C1=C(C)NC2=C(C(=O)CC(c3ccc(OC)cc3)C2)C1c1ccccc1F (stereo not drawn) | > 100000 | 74.1 | 27.1 |
| CCOC(=O)C1=C(C)NC2=C(C(=O)CC(c3ccc(OC)c(OC)c3)C2)C1c1ccccc1Br (stereo not drawn) | > 100000 | 73.2 | 26.7 |
| COc1cc(C(=O)NC(C)C)ccc1OC1CCN(CC(c2ccccc2)c2ccccc2)CC1 | > 100000 | 74.3 | 23.6 |
| CCCOC(=O)C1=C(C)NC2=C(C(=O)CC(c3ccc(OC)cc3)C2)C1c1ccccc1Cl (stereo not drawn) | > 100000 | 27.2 | 22.1 |
| COc1ccc(C2CC(=O)C3=C(C2)NC(C)=C(C(=O)OC(C)C)C3c2cccc(Cl)c2Cl)cc1OC (stereo not drawn) | > 87300 | 67.6 | 18.1 |
| CCCOC(=O)C1=C(C)NC2=C(C(=O)CC(c3ccc(OC)cc3)C2)C1c1ccccc1F (stereo not drawn) | > 100000 | 55 | 20.1 |
| CCCOC(=O)C1=C(C)NC2=C(C(=O)CC(c3ccc(Cl)cc3)C2)C1c1ccccc1F (stereo not drawn) | > 100000 | 254 | 18.6 |
| CC(=O)c1ccc(NC(=O)CSc2nnc3c4c(-c5ccc(F)cc5)csc4ncn23)cc1 | > 100000 | > 12500 | 23.9 |
| COc1ccc(C2CC(=O)C3=C(C2)NC(C)=C(C(=O)OC(C)C)C3c2ccc(F)cc2)cc1 (stereo not drawn) | > 100000 | 83.4 | 23.2 |

| SMILES | CC50 [1] [nM] | EC50 (Plasmodium falciparum [2]) [nM] | EC50 (Plasmodium falciparum [3]) [nM] |
| --- | --- | --- | --- |
| CCOC(=O)C1=C(C)NC2=C(C(=O)CC(c3ccc(OC)c(OC)c3)C2)C1c1c(F)cccc1Cl (stereo not drawn) | > 100000 | 76.7 | 23 |
| CCCOC(=O)C1=C(C)NC2=C(C(=O)CC(c3ccc(OC)c(OC)c3)C2)C1c1ccc([N+](=O)[O-])cc1 (stereo not drawn) | > 100000 | 25.9 | 20.5 |
| COC(=O)C1=C(C)NC2=C(C(=O)CC(c3ccc(OC)c(OC)c3)C2)C1c1ccccc1C (stereo not drawn) | > 100000 | 125 | 31.7 |
| O=C(N=CNNc1ccccc1F)c1cc(OCC(F)(F)F)ccc1OCC(F)(F)F | > 10000 | > 532 | < 3.13 |
| CCC(C)OC(=O)C1=C(C)NC2=C(C(=O)CC(c3ccc(OC)cc3)C2)C1c1ccc(O)cc1 (stereo not drawn) | > 100000 | 500 | 31.2 |
| O=C(O)C(Cc1ccc([N+](=O)[O-])cc1)NS(=O)(=O)c1ccc(OC(F)(F)F)cc1 (stereo not drawn) | > 10000 | 580 | 3.29 |
| O=C(Nc1ccc2nc3n(c(=O)c2c1)CCCCC3)C(=O)N1CCN(c2ccccc2)CC1 | > 100000 | 133 | 30.8 |
| CCOC(=O)C1=C(C)NC2=C(C(=O)CC(c3ccc(OC)c(OC)c3)C2)C1c1cccc(Cl)c1Cl (stereo not drawn) | > 100000 | 32.9 | 30.5 |
| COc1ccc(C2CC(=O)C3=C(C2)NC(C)=C(C(=O)OC(C)C)C3c2ccccc2C)cc1OC (stereo not drawn) | > 100000 | 9.98 | 14.5 |
| CCCCNCCN1CCN(c2ccc3ccccc3c2)C[C@@H]1c1ccccc1 | 8160 | 34.5 | 2.45 |
| COc1ccc(C2CC(=O)C3=C(C2)NC(C)=C(C(=O)OC2CCCC2)C3c2ccc(Cl)cc2Cl)cc1 (stereo not drawn) | > 100000 | 126 | 34.7 |
| COc1ccc(C2CC(=O)C3=C(C2)NC(C)=C(C(=O)OC2CCCC2)C3c2ccccc2)cc1 (stereo not drawn) | > 100000 | 124 | 33.5 |
| COCCOC(=O)C1=C(C)NC2=C(C(=O)CC(c3ccc(OC)cc3)C2)C1c1ccc(Cl)cc1 (stereo not drawn) | > 100000 | 167 | 33.2 |
| COC(=O)C1=C(C)NC(=Cc2cc(C)n(-c3cc(C)ccc3C)c2C)C1=O | > 100000 | 9.53 | 18.4 |
| O=C(NCCCCCCNC(=O)Nc1ccc(C2=NCCCN2)cc1)Nc1ccc(C2=NCCCN2)cc1 | > 10000 | 108 | < 3.28 |

From ChEMBL document CHEMBL1156829 (Proc Natl Acad Sci U S A, 2008)
